Earlier results, collected in patent US10137085B2, “Nanoemulsion for transdermal delivery and method of making the same” (Nano and Advanced Materials Institute Limited, priority 2014, dated 2018).
Where a name gives a salt, the structure may show the parent alone. Read-outs that look alike come from different tables or passages of the source.

Legend:
[1] = o/w microemulsion with oleyl alcohol and NMP, compared to aqueous solution

increase of permeation efficiency through skin (solid-in-oil nanodispersion vs control aqueous solution)	increase of permeation efficiency through skin (solid-in-oil nanodispersion with urea as enhancer vs control aqueous solution, after 24 h)	enhancement of drug permeability [1] [fold]	SMILES
two- to three	approximately 8.8 fold	–	CN(Cc1cnc2nc(N)nc(N)c2n1)c1ccc(C(=O)N[C@@H](CCC(=O)O)C(=O)O)cc1 [methotrexate]
–	–	520	COc1ccc([C@@H]2Sc3ccccc3N(CCN(C)C)C(=O)[C@@H]2OC(C)=O)cc1 [diltiazem HCl]
–	–	58	C[C@]12CC[C@@H]3c4ccc(O)cc4CC[C@H]3[C@@H]1CC[C@@H]2O [estradiol]
